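Cultured in 96-well plates, cells were exposed to test compound for 48 hours across five concentrations. GI50 is the concentration that inhibits growth by half. At the TGI there is no net growth.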
Legend:
Assay in all cases: NCI anticancer screen, dose series, 48 h
IGROV1 ovarian = system: IGROV1 ovarian
NCI-H226 lung = system: NCI-H226 lung
SK-OV-3 ovarian = system: SK-OV-3 ovarian
MOLT-4 leukemia = system: MOLT-4 leukemia
HL-60(TB) leukemia = system: HL-60(TB) leukemia
UO-31 renal = system: UO-31 renal
SN12C renal = system: SN12C renal
A549 NSCLC = system: A549 NSCLC
OVCAR-5 ovarian = system: OVCAR-5 ovarian
HS 578T breast = system: HS 578T breast

| Compound | TGI (IGROV1 ovarian) [µM] | TGI (NCI-H226 lung) [µM] | TGI (SK-OV-3 ovarian) [µM] | TGI (MOLT-4 leukemia) [µM] | TGI (HL-60(TB) leukemia) [µM] | TGI (UO-31 renal) [µM] | TGI (SN12C renal) [µM] | TGI (A549 NSCLC) [µM] | TGI (OVCAR-5 ovarian) [µM] | GI50 (OVCAR-5 ovarian) [µM] | GI50 (IGROV1 ovarian) [µM] | GI50 (NCI-H226 lung) [µM] | GI50 (SK-OV-3 ovarian) [µM] | GI50 (UO-31 renal) [µM] | GI50 (SN12C renal) [µM] | GI50 (HS 578T breast) [µM] | TGI (HS 578T breast) [µM] | GI50 (A549 NSCLC) [µM] | GI50 (MOLT-4 leukemia) [µM] | GI50 (HL-60(TB) leukemia) [µM] |
| --- | --- | --- | --- | --- | --- | --- | --- | --- | --- | --- | --- | --- | --- | --- | --- | --- | --- | --- | --- | --- |
| Cc1ccc([N+](=O)[O-])cc1NC(=O)c1cccc([N+](=O)[O-])c1O | 98.6 | 51.9 | 54.3 | 73 | 34.4 | 36.2 | > 100 | > 100 |  |  |  |  |  |  |  |  |  |  |  |  |
| Fc1ccccc1C1SCc2nc3ccccc3n21 (stereo unspecified) | > 100 | > 100 | > 100 | > 100 | 44.6 | > 100 | > 100 | > 100 | > 100 |  |  |  |  |  |  |  |  |  |  |  |
| Nc1nc(N)c2c(n1)NC(c1ccc(F)cc1)C1CCc3ccccc3C1=N2 (stereo unspecified) | 24.1 | 24.5 | 23.3 |  |  | 17.3 | 21.6 | 24.3 | 26.3 | 13.1 | 7.79 | 5.97 | 11.1 | 3.34 | 7.8 | 10.2 | 34.6 | 10.2 |  |  |
| O=C(c1ccccc1)C(Br)C(Br)c1cccc([N+](=O)[O-])c1 (stereo unspecified) | 7.5 | 3.46 | 22.9 | 5.39 | 4.68 | 3.14 | 4.21 | 32.3 | 5.65 | 2.46 | 2.75 | 1.74 | 11 | 1.68 | 1.88 |  |  | 14.3 | 2.09 | 2.04 |
| NCCN.NCCN.O=C([O-])CCl.O=C([O-])CCl.[Co+3].[O-][Cl+3]([O-])([O-])[O-] | > 100 |  | > 100 | > 100 |  | > 100 | > 100 | > 100 | > 100 | > 100 | > 100 |  | > 100 | > 100 | > 100 |  |  | > 100 | > 100 |  |
| O=S(=O)(c1cccc2c(Cl)cccc12)N1CCCNCC1 | 34.6 | 25.3 | 29.1 | 26 |  | 28.5 | 24.6 | 28.2 | 23.6 | 11.5 | 18.6 | 11.8 | 15.7 | 14.1 | 12.2 | 21.4 | 45.4 | 14 | 12.8 |  |
| COc1ccc(S(=O)(=O)N/N=C/c2cc(I)cc([N+](=O)[O-])c2O)cc1OC | > 100 | 62.1 | 92.2 | 64.8 | 57.5 | 53.4 | > 100 | > 100 | > 100 |  |  |  |  |  |  |  |  |  |  |  |
| COc1ccc(CC(=O)NCCc2ccc(OC)c(OC)c2)cc1Br | > 100 | > 100 | > 100 | > 100 | > 100 | > 100 | > 100 | > 100 | > 100 |  |  |  |  |  |  |  |  |  |  |  |
| Cc1cc(NS(=O)(=O)c2ccc(NC(=O)c3ccc(Cl)c4c(Nc5ccc(S(=O)(=O)N=C(N)N)cc5)c5ccccc5nc34)cc2)no1 |  |  | > 100 | 41.6 |  | > 100 | > 100 |  | > 100 |  |  |  |  |  |  |  |  |  |  |  |
| CN1CC[C@]2(C)c3cc(O)ccc3CC3CCCC1C32C (stereo partly specified) | > 100 | > 100 | > 100 | > 100 | > 100 | > 100 | > 100 | > 100 | > 100 |  |  |  |  |  |  |  |  |  |  |  |
| COc1cc(C(O)C(=O)c2nc3ccc([N+](=O)[O-])cc3[nH]c2=O)ccc1O (stereo unspecified) | > 100 | > 100 | > 100 | > 100 | > 100 | > 100 | > 100 | > 100 | > 100 |  |  |  |  |  |  |  |  |  |  |  |
| CC(C)(CN1CCCCC1)C(=O)/C=C/c1ccc(Cl)cc1 |  | 14.7 | 23.5 | 5.11 | 4.8 | 20.2 | 7.24 | 14.4 | 23.5 |  |  |  |  |  |  |  |  |  |  |  |
| Cc1c(C(=O)CC(=O)C(=O)Nc2ccc(Cl)cc2)[n+](=O)c2ccccc2n1[O-] | > 100 | > 100 | > 100 | > 100 | > 100 | > 100 | > 100 | > 100 | > 100 |  |  |  |  |  |  |  |  |  |  |  |
| C/C=C1/CCC2c3[nH]c4ccccc4c3CCN2C1 (stereo unspecified) | > 100 | > 100 | > 100 | > 100 | > 100 | > 100 | > 100 | > 100 | > 100 |  |  |  |  |  |  |  |  |  |  |  |
| C=C1C(=O)OC2C=C(CCC(C)=O)C(C)C(OC(C)=O)CC12 (stereo unspecified) | 43.9 | 32.8 |  | 34.1 | 8.89 | 26.6 | 32.1 | 55.4 | 29.6 |  |  |  |  |  |  |  |  |  |  |  |
| O=C(O)CCC(NC(=O)c1ccccc1)C(=O)O (stereo unspecified) | > 100 |  | > 100 | > 100 |  | > 100 | > 100 | > 100 | > 100 |  |  |  |  |  |  |  |  |  |  |  |

| Compound | TGI (IGROV1 ovarian) [µM] | TGI (NCI-H226 lung) [µM] | TGI (SK-OV-3 ovarian) [µM] | TGI (MOLT-4 leukemia) [µM] | TGI (HL-60(TB) leukemia) [µM] | TGI (UO-31 renal) [µM] | TGI (SN12C renal) [µM] | TGI (A549 NSCLC) [µM] | TGI (OVCAR-5 ovarian) [µM] | GI50 (OVCAR-5 ovarian) [µM] | GI50 (IGROV1 ovarian) [µM] | GI50 (NCI-H226 lung) [µM] | GI50 (SK-OV-3 ovarian) [µM] | GI50 (UO-31 renal) [µM] | GI50 (SN12C renal) [µM] | GI50 (HS 578T breast) [µM] | TGI (HS 578T breast) [µM] | GI50 (A549 NSCLC) [µM] | GI50 (MOLT-4 leukemia) [µM] | GI50 (HL-60(TB) leukemia) [µM] |
| --- | --- | --- | --- | --- | --- | --- | --- | --- | --- | --- | --- | --- | --- | --- | --- | --- | --- | --- | --- | --- |
| O=C1CCCC(=O)N1CCc1c[nH]c2ccccc12 | > 100 | > 100 | > 100 | > 100 | > 100 | > 100 | > 100 | > 100 | > 100 |  |  |  |  |  |  |  |  |  |  |  |
| c1ccc2cc3[s+]snc3cc2c1 | > 100 | > 100 | > 100 | > 100 | > 100 | > 100 | > 100 | > 100 | > 100 |  |  |  |  |  |  |  |  |  |  |  |
| CN(C)CCNC(=O)c1cccc2[nH]c(-c3cccnc3)nc12 | > 100 | 56.6 | 80.3 | > 100 | > 100 | 39.5 | 54.4 | 43.5 | 64.2 |  |  |  |  |  |  |  |  |  |  |  |
| CCCC/C=C1\CCC(C)(CN(C)C)C1=O (stereo unspecified) | > 100 |  |  | > 100 | > 100 | > 100 | > 100 | > 100 | > 100 |  |  |  |  |  |  |  |  |  |  |  |
| O=C(NCCCCCCNC(=O)OCCSCCn1cc(C(=O)NC(=O)OCc2ccccc2)c(=O)[nH]c1=O)OCCSCCn1cc(C(=O)NC(=O)OCc2ccccc2)c(=O)[nH]c1=O | > 100 | > 100 |  | > 100 |  | > 100 | > 100 | > 100 | > 100 |  |  |  |  |  |  |  |  |  |  |  |
| O=C(O)CCSC(=O)Nc1ccccc1F |  | > 100 |  | > 100 | > 100 | > 100 | > 100 | > 100 | > 100 |  |  |  |  |  |  |  |  |  |  |  |
| FC(F)(F)c1ccc(C#Cc2ccccc2C#Cc2ccccc2)cc1 | > 100 | 99.9 | > 100 | 87.2 |  | > 100 |  | > 100 | > 100 | 48.7 | > 100 | 30.1 | 32.6 | 49.7 |  |  |  | 49.9 | 35 |  |
| O=C1C2C=CC(C2)C(c2ccc(O)cc2)N1O (stereo unspecified) | > 100 | > 100 | > 100 | > 100 | > 100 | > 100 | > 100 | > 100 | > 100 |  |  |  |  |  |  |  |  |  |  |  |
| Cc1ccc(NC(=O)C(=O)CC(=O)c2c(C)n([O-])c3ccccc3[n+]2=O)cc1 | 78.3 | > 100 | > 100 | 52.8 | 48.6 | > 100 | > 100 | 87.3 | > 100 |  |  |  |  |  |  |  |  |  |  |  |
| O=c1nc(NC(c2ccccc2)(c2ccccc2)c2ccccc2)ccn1CCNCCn1ccc(NC(c2ccccc2)(c2ccccc2)c2ccccc2)nc1=O | 56.2 | 34.7 | 46.1 |  |  | > 100 | 44.1 | > 100 | > 100 |  |  |  |  |  |  |  |  |  |  |  |
| Cc1[nH]c(=O)n2c(C)nnc2c1C(=O)Nc1cc(Cl)cc(Cl)c1 | 82 | 68.5 | 70.7 | > 100 | 47.9 | 68.2 | 66.5 | > 100 | > 100 |  |  |  |  |  |  |  |  |  |  |  |
| C[C@]12CCC(=O)C(O)=C1CC[C@@H]1C2CC[C@]2(C)Nc3c(cnn3-c3ccccc3)CC12 (stereo partly specified) | > 100 | > 100 | > 100 | > 100 | 62.6 | > 100 |  | > 100 | > 100 |  |  |  |  |  |  |  |  |  |  |  |
| O=C(O)CNS(=O)(=O)c1ccc(NC(=O)CI)cc1 | > 100 | > 100 | 72.8 | 34.5 | 37.5 | 39.5 | > 100 | > 100 | 61.1 |  |  |  |  |  |  |  |  |  |  |  |
| COC(=O)[C@]12CC=C3O[C@@H]4OC5(CCCCC5)O[C@@H]4C3[C@@H]1C(=O)CCC2=O (stereo partly specified) | > 100 | > 100 | > 100 | > 100 | > 100 | > 100 | > 100 | > 100 | > 100 |  |  |  |  |  |  |  |  |  |  |  |
| COc1ccccc1C1c2cc3c(cc2OC(O)(CO)C1C(=O)O)OCO3 (stereo unspecified) (tested in a mixture with another compound) | > 100 | > 100 | > 100 | > 100 | > 100 | > 100 | > 100 | > 100 | > 100 |  |  |  |  |  |  |  |  |  |  |  |
